Laboratory results from PubChem BioAssay (NCI).
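These data come from cells grown in 96-well plates and exposed to compound for 48 hours at five concentrations. TGI: total growth inhibition.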

Columns and labels:
Test in all cases: inhibition of tumour cell growth, NCI panel, 48 h
OVCAR-5 ovarian = tested on: OVCAR-5 ovarian
MOLT-4 leukemia = tested on: MOLT-4 leukemia
HCC-2998 colon = tested on: HCC-2998 colon
EKVX NSCLC = tested on: EKVX NSCLC
SK-MEL-28 melanoma = tested on: SK-MEL-28 melanoma
SK-OV-3 ovarian = tested on: SK-OV-3 ovarian
OVCAR-4 ovarian = tested on: OVCAR-4 ovarian
MDA-MB-435 = tested on: MDA-MB-435
ACHN renal = tested on: ACHN renal
A498 renal = tested on: A498 renal
SF-268 CNS = tested on: SF-268 CNS
TK-10 renal = tested on: TK-10 renal
NCI/ADR-RES ovarian = tested on: NCI/ADR-RES ovarian
OVCAR-8 ovarian = tested on: OVCAR-8 ovarian
HT29 colon = tested on: HT29 colon
OVCAR-3 ovarian = tested on: OVCAR-3 ovarian
HS 578T breast = tested on: HS 578T breast
SW-620 colon = tested on: SW-620 colon
786-0 renal = tested on: 786-0 renal
MALME-3M melanoma = tested on: MALME-3M melanoma
SN12C renal = tested on: SN12C renal
KM12 colon = tested on: KM12 colon
DU-145 prostate = tested on: DU-145 prostate
SR leukemia = tested on: SR leukemia
SNB-19 CNS = tested on: SNB-19 CNS
RXF 393 renal = tested on: RXF 393 renal
BT-549 breast = tested on: BT-549 breast
MDA-MB-231 breast = tested on: MDA-MB-231 breast
IGROV1 ovarian = tested on: IGROV1 ovarian
LOX IMVI melanoma = tested on: LOX IMVI melanoma
HOP-62 NSCLC = tested on: HOP-62 NSCLC
SK-MEL-5 melanoma = tested on: SK-MEL-5 melanoma
UACC-257 melanoma = tested on: UACC-257 melanoma
UACC-62 melanoma = tested on: UACC-62 melanoma
A549 NSCLC = tested on: A549 NSCLC
SF-539 CNS = tested on: SF-539 CNS
HCT-15 colon = tested on: HCT-15 colon
RPMI-8226 leukemia = tested on: RPMI-8226 leukemia
NCI-H226 lung = tested on: NCI-H226 lung
T-47D breast = tested on: T-47D breast
CAKI-1 renal = tested on: CAKI-1 renal
PC-3 prostate = tested on: PC-3 prostate
NCI-H23 lung = tested on: NCI-H23 lung
HCT-116 colon = tested on: HCT-116 colon
K-562 leukemia = tested on: K-562 leukemia
MCF7 breast = tested on: MCF7 breast
NCI-H460 lung = tested on: NCI-H460 lung
CCRF-CEM leukemia = tested on: CCRF-CEM leukemia
HL-60(TB) leukemia = tested on: HL-60(TB) leukemia
SF-295 CNS = tested on: SF-295 CNS
UO-31 renal = tested on: UO-31 renal
COLO 205 colon = tested on: COLO 205 colon
SNB-75 CNS = tested on: SNB-75 CNS
M14 melanoma = tested on: M14 melanoma
NCI-H522 lung = tested on: NCI-H522 lung
HOP-92 NSCLC = tested on: HOP-92 NSCLC
U251 CNS = tested on: U251 CNS

Molecule `CCOc1ccc(NCC2CC/C(=C\c3ccc(O)cc3)C2=O)cc1` (configuration not stated) has a TGI (OVCAR-5 ovarian) of 29 µM, a TGI (MOLT-4 leukemia) of over 38.4 µM and a TGI (HCC-2998 colon) of 34 µM. For the same molecule, the TGI (EKVX NSCLC) was 39.5 µM, the TGI (SK-MEL-28 melanoma) was 29.2 µM and the TGI (SK-OV-3 ovarian) was over 58.5 µM. For the same molecule, the TGI (OVCAR-4 ovarian) was 31.5 µM, the TGI (MDA-MB-435) was 35.8 µM and the TGI (ACHN renal) was 31.2 µM. For the same molecule, the TGI (A498 renal) was 38.9 µM, the TGI (SF-268 CNS) was 30.8 µM and the TGI (TK-10 renal) was 26.2 µM. The TGI (NCI/ADR-RES ovarian) was 36.9 µM, the TGI (OVCAR-8 ovarian) was 34.4 µM and the TGI (HT29 colon) was 33 µM. It also gave a TGI (OVCAR-3 ovarian) of 25.5 µM, a TGI (HS 578T breast) of 73.7 µM and a TGI (SW-620 colon) of 27.1 µM. The TGI (786-0 renal) was 18 µM, the TGI (MALME-3M melanoma) was 28.5 µM and the TGI (SN12C renal) was 35.6 µM. The TGI (KM12 colon) was 26.8 µM, the TGI (DU-145 prostate) was over 59.9 µM and the TGI (SR leukemia) was 5.13 µM. The TGI (SNB-19 CNS) was over 55.2 µM, the TGI (RXF 393 renal) was 32.7 µM and the TGI (BT-549 breast) was 25.6 µM. For the same molecule, the TGI (MDA-MB-231 breast) was 38.4 µM, the TGI (IGROV1 ovarian) was 33.9 µM and the TGI (LOX IMVI melanoma) was 16.8 µM. It also gave a TGI (HOP-62 NSCLC) of over 67.1 µM, a TGI (SK-MEL-5 melanoma) of 33.8 µM and a TGI (UACC-257 melanoma) of 30.7 µM. The TGI (UACC-62 melanoma) was 37.7 µM, the TGI (A549 NSCLC) was 48.6 µM and the TGI (SF-539 CNS) was 36.1 µM. For the same molecule, the TGI (HCT-15 colon) was 17.8 µM, the TGI (RPMI-8226 leukemia) was over 25.3 µM and the TGI (NCI-H226 lung) was over 61.2 µM. The TGI (T-47D breast) was 62.2 µM, the TGI (CAKI-1 renal) was 34.3 µM and the TGI (PC-3 prostate) was 30.7 µM. The TGI (NCI-H23 lung) was 50.4 µM, the TGI (HCT-116 colon) was 23.6 µM and the TGI (K-562 leukemia) was over 100 µM. The TGI (MCF7 breast) was 18.1 µM, the TGI (NCI-H460 lung) was 54.2 µM and the TGI (CCRF-CEM leukemia) was 49 µM. For the same molecule, the TGI (HL-60(TB) leukemia) was 5.33 µM, the TGI (SF-295 CNS) was over 54.6 µM and the TGI (UO-31 renal) was 33.6 µM. It also gave a TGI (COLO 205 colon) of 28.6 µM, a TGI (SNB-75 CNS) of 27.8 µM and a TGI (M14 melanoma) of 36 µM. The TGI (NCI-H522 lung) was 11.7 µM, the TGI (HOP-92 NSCLC) was 30 µM and the TGI (U251 CNS) was 30.7 µM.
